Reference: patent US20240238300A1, “TREATMENT METHODS FOR SUBJECTS WITH CANCER HAVING AN ABERRATION IN EGFR AND/OR HER2” (TAIHO PHARMACEUTICAL CO., LTD., priority 2021, published 2024)
Like-named read-outs stand apart in the source and are kept apart here.

Columns and labels:
[1] = target: T1, human P-gp (Homo sapiens, UniProt P08183); experiment: inhibitory effect on human P-gp, bidirectional transport of [^3H]digoxin; type: in vitro ADME
T1 construct: expressed in transfected cells; host or cells: LLC-PK1 (porcine kidney) cells expressing human P-gp; mock/LLC-PK1 as control
Text: Inhibitory effect of Compound (1) on human P-gp. […] The net flux ratios at the Compound (1) concentrations of 0.01, 0.1, 1, 5, 10, and 100 μmol/L were 5.6±1.0, 5.5±0.7, 6.5±0.5, 2.8±0.5, 1.3±0.2, and 1.0±0.1, respectively. The percent of controls at the Compound (1) concentrations at 0.01, 0.1, 1, 5, 10, and 100 μmol/L were 112%, 110%, 135%, 45%, 7%, and 1%, respectively.

[2] = tested on: refractory T-DM1 NCI-N87 tumor fragment #6; experiment: refractory T-DM1 tumor fragment model, comparison to lapatinib and tucatinib; type: in vivo, male nude mice (BALB/cAJcl-nu/nu); settings: for antitumor effect (tumor volume): 21 days
Protocol: Cancer Sci. 2020 June; 111(6):2123-2131. The NCI-N87 tumor fragment #6 obtained from the above procedure was then passaged two times into male nude mice (BALB/cAJcl-nu/nu) subcutaneously before the efficacy test of Compound (1).
The tumor volumes (TV, mnm^3) and body weights of the mice were recorded.

[3] = tested on: NCI-N87 human gastric carcinoma xenografts; experiment: antitumor effect in nude mice bearing NCI-N87 xenografts; type: in vivo; settings: 12.5 mg/kg/day orally once daily 14 days, Day 15
Protocol: The antitumor effect of Compound (1) was evaluated in nude mice bearing HER2-overexpressing NCI-N87 human gastric carcinoma xenografts. Compound (1) dosing suspensions using 0.5% w/v hydroxypropyl methylcellulose (HPMC) as vehicle were prepared at 4 dose levels (3.1, 6.3, 12.5, and 25.0 mg/kg/day) and administered orally once daily for 14 days. In addition, the antitumor effect of poziotinib, which is a pan-ErbB inhibitor and currently under clinical development for the treatment of cancer with epidermal growth factor receptor containing HER2 exon 20 insertion mutations, was also evaluated using this model. Poziotinib was administered orally once daily for 14 days at 2 dose levels (0.5 or 1.0 mg/kg/day). The control group received 0.5% w/v HPMC once daily for 14 days.

[4] = brain penetrability after single oral administration; type: in vivo, male nude mice; settings: male, nude, mouse
Protocol: Brain penetrability of Compound (1) in nude mice. The brain penetrability of Compound (1) was confirmed by Kp,brain values at 0.5 and 1 hour in male nude mice following a single oral administration at 50 mg/kg (Table 6). Based on the brain penetrability study and brain and plasma protein binding studies, Kp,uu,brain was calculated to be 0.26±0.05 for 0.5 hour and 0.13±0.03 for 1 hour.

[5] = tested on: T2, P-gp; experiment: substrate susceptibility on human P-gp, bidirectional transcellular transport, P-gp/LLC-PK1 cells; type: in vitro ADME; settings: human, LLC-PK1, with zosuquidar 10 μmol/L, read-out: net flux ratio
T2 construct: expressed in transfected cells; host or cells: LLC-PK1 (porcine kidney) cells expressing human P-gp; mock/LLC-PK1 as control
Protocol: (§1) Substrate susceptibility of Compound (1) on human P-gp. Time-dependence of the bidirectional transcellular transport of 1 μmol/L and 10 μmol/L Compound (1) across human P-gp/Lilly Laboratories Cell-Porcine Kidney 1 (LLC-PK1) cells and mock/LLC-PK1 cells was analyzed. Net flux ratios of some samples incubated with 1 μmol/L Compound (1) for 2 or 3 hours was not calculable as concentrations of these samples were below the lower limit of quantification. […] The net flux ratios of samples incubated with 10 μmol/L Compound (1) for 2, 3, and 4 hours were 1.4±0.4 1.7±0.3, and 1.5±0.2, respectively. The net flux ratios samples incubated with 10 μmol/L Compound (1) with 10 μmol/L zosuquidar for 2, 3, and 4 hours were 1.2±0.3, 1.2±0.1, and 1.1±0.1, respectively.

[6] = target: T1, human P-gp; experiment: as above; type: in vitro ADME
Protocol: as §1

[7] = tested on: NCI-N87 xenografts relapsed from T-mab and P-mab; experiment: refractory T-mab/P-mab model Step II; type: in vivo; settings: for RTV (mean ± SE): Day 15 to Day 1 (Step II); for BWC (mean ± SE): Day 15 vs Day 1 (Step II); for T/C: Step II Day 15, vs T-mab + P-mab group; for Number of Death / TV (mean ± SE): Step II Day 15
Protocol: Male nude mice (BALB/cAJcl-mu/mu) were implanted with NCI-N87 human gastric carcinoma (HER2 overexpressing); 1.0×10^7 cells in 100 μL of PBS were implanted subcutaneously per mouse.
The tumor volumes (TV, mm^3) and body weights of the mice were recorded.

[8] = plasma protein binding, equilibrium dialysis; type: in vitro ADME
Protocol: Plasma protein binding of Compound (1). Plasma protein binding of Compound (1) in mice, rats, dogs, monkeys, and humans was determined using the equilibrium dialysis method.

T1 sequence (P08183 whole entry): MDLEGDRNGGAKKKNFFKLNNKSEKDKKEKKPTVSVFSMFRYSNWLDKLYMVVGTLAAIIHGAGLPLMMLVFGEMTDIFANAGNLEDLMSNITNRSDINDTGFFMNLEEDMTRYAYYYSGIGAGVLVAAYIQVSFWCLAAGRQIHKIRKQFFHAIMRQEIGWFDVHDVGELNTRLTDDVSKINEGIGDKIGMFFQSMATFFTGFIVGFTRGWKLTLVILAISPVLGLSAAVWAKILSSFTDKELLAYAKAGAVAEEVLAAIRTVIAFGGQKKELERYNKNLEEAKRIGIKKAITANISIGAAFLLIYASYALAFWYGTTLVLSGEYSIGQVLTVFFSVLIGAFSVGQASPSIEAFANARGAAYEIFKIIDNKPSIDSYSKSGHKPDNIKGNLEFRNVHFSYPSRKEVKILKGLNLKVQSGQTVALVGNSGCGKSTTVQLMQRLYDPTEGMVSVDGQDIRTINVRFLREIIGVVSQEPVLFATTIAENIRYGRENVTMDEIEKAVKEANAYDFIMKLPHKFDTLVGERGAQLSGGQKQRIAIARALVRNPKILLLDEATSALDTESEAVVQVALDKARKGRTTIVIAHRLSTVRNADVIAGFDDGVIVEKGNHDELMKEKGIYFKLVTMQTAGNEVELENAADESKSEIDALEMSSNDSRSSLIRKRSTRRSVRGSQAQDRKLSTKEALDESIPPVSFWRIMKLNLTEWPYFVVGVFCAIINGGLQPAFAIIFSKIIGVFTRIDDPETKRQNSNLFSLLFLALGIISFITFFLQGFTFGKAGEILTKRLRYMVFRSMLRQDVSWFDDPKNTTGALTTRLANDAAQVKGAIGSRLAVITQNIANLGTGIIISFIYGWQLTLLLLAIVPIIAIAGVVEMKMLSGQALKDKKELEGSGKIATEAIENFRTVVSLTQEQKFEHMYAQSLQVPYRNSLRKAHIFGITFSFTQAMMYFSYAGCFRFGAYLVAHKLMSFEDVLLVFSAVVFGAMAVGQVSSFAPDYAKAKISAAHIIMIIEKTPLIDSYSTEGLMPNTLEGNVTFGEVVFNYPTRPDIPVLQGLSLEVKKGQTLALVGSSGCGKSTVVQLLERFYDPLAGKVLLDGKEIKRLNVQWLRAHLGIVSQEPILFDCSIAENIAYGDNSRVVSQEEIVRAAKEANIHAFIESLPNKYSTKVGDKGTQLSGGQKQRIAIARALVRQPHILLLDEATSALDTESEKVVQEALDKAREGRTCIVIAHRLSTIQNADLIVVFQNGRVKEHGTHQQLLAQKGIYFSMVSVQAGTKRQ

For C=CC(=O)N1C[C@H](n2c(C#CC3CC3)c(C(=O)N[C@H](C)c3ccccc3)c3c(N)ncnc32)C[C@@H]1C [Compound (1), 7-((3R,5S)-1-acryloyl-5-methylpyrrolidin-3-yl)-4-amino-6-(cyclopropylethynyl)-N—((R)-1-phenylethyl)-7H-pyrrolo[2,3-d]pyrimidine-5-carboxamide], the IC50 [1] was 3.48 µM, the activity at 3 h, 0.01 μmol/L ([1]; human) was 112% and the activity at 3 h, 0.1 μmol/L ([1]; human) was 110%. It also gave an activity at 3 h, 1 μmol/L ([1]; human) of 135%, an activity at 3 h, 5 μmol/L ([1]; human) of 45% and an activity at 3 h, 10 μmol/L ([1]; human) of 7%. For the same compound, the activity at 3 h, 100 μmol/L ([1]; human) was 1%, the “antitumor effect (tumor volume)” value ([2]; 12.5 mg/kg/day PO once per day) was “arresting tumor growth” and the “antitumor effect (tumor volume)” value ([2]; 20 mg/kg/day PO once per day) was “inducing tumor regression”. For the same compound, the “antitumor effect compared to lapatinib (50 mg/kg b.i.d.) or tucatinib (75 mg/kg b.i.d.)” value ([2]; 12.5 and 20 mg/kg/day PO) was “superior antitumor effects”, the body weight loss ([2]; 12.5 or 20 mg/kg) was “did not cause body weight loss” and the “T/C ratio of the mean tumor volumes” value [3] was 7.3%. For the same compound, the Kp uu at 0.5 h ([4]; brain and plasma (unbound), 0.5 hr after single oral 50 mg/kg) was 0.26 ± 0.05, the Kp uu at 1 h ([4]; brain and plasma (unbound), 1 hr after single oral 50 mg/kg) was 0.13 ± 0.03 and the Kp at 0.5 h ([4]; brain, 0.5 hr after single oral 50 mg/kg) was 0.415 ± 0.08. For the same compound, the concentration at 0.5 h ([4]; brain, 0.5 hr after single oral 50 mg/kg, read-out: Brain Concentration) was 3590 ± 600 ng/g, the Kp at 1 h ([4]; brain, 1 hr after single oral 50 mg/kg) was 0.206 ± 0.042 and the concentration at 1 h ([4]; brain, 1 hr after single oral 50 mg/kg, read-out: Brain Concentration) was 1290 ± 440 ng/g. It also gave a concentration at 0.5 h ([4]; plasma, 0.5 hr after single oral 50 mg/kg, read-out: Plasma Concentration) of 8720 ± 650 ng/mL, a concentration at 1 h ([4]; plasma, 1 hr after single oral 50 mg/kg, read-out: Plasma Concentration) of 6170 ± 910 ng/mL and an efflux ratio at 4 h, 1 μmol/L ([5]; 1 μmol/L Compound (1), 4 hours, with 10 μmol/L zosuquidar) of 1.5 ± 0.6. It also gave an efflux ratio at 2 h, 10 μmol/L ([5]; 10 μmol/L Compound (1) with 10 μmol/L zosuquidar, 2 hours) of 1.2 ± 0.3, an efflux ratio at 4 h, 10 μmol/L ([5]; 10 μmol/L Compound (1) with 10 μmol/L zosuquidar, 4 hours) of 1.1 ± 0.1 and a net flux ratio ([6]; 1 μmol/L Compound (1), 4 hours, without zosuquidar) of 4.7±0.7. For the same compound, the net flux ratio ([6]; 10 μmol/L Compound (1) with 10 μmol/L zosuquidar, 3 hours) was 1.2±0.1, the net flux ratio ([6]; 10 μmol/L Compound (1), 2 hours) was 1.4±0.4 and the net flux ratio ([6]; 10 μmol/L Compound (1), 3 hours) was 1.7±0.3. For the same compound, the net flux ratio ([6]; 10 μmol/L Compound (1), 4 hours) was 1.5±0.2, the “substrate susceptibility on human P-gp” value ([6]; transport saturable by increase of concentration) was “substrate of P-gp” and the “body weight loss (tolerance)” value ([7]; 12.5 and 25 mg/kg/day) was “did not cause severe body weight loss”. For the same compound, the “RTV (mean ± SE)” value ([7]; 12.5 mg/kg/day po Days 1-14) was 1.2, the “RTV (mean ± SE)” value ([7]; 25 mg/kg/day po Days 1-14) was 1.0 and the “BWC (mean ± SE)” value ([7]; 12.5 mg/kg/day po Days 1-14) was −1.2%. The “BWC (mean ± SE)” value ([7]; 25 mg/kg/day po Days 1-14) was −4.4%, the T/C ([7]; 12.5 mg/kg/day po Days 1-14) was 52.5% and the T/C ([7]; 25 mg/kg/day po Days 1-14) was 46.1%. For the same compound, the “Number of Death” value ([7]; 12.5 mg/kg/day po Days 1-14) was 0, the “TV (mean ± SE)” value ([7]; 12.5 mg/kg/day po Days 1-14) was 412.5 mm^3 and the “Number of Death” value ([7]; 25 mg/kg/day po Days 1-14) was 0. The “TV (mean ± SE)” value ([7]; 25 mg/kg/day po Days 1-14) was 362.4 mm^3, the fraction unbound ([8]; dog, dogs, 0.2, 2, and 20 μmol/L) was 0.02 to 0.026 and the fraction unbound ([8]; human, humans, 0.2, 2, and 20 μmol/L) was 0.004 to 0.006. For the same compound, the fraction unbound ([8]; monkey, monkeys, 0.2, 2, and 20 μmol/L) was 0.015 to 0.02, the fraction unbound ([8]; mouse, mice, 0.2, 2, and 20 μmol/L) was 0.005 to 0.012 and the fraction unbound ([8]; rat, rats, 0.2, 2, and 20 μmol/L) was 0.011 to 0.027.
